From PMC3298469, “A selective and potent CXCR3 antagonist SCH 546738 attenuates the development of autoimmune diseases and delays graft rejection” (BMC Immunology, 2012)

Experiments:
[1] = biological target: Vasopressin (oxytocin) (Homo sapiens, UniProt P30559); test: GPCR counterscreen binding assay
Procedure: (§1) SCH 546738 was tested at concentrations of 1-10 μM against a panel of 49 GPCR binding assays. Most of the assays were not affected by SCH 546738 (Table 2). […] In addition, SCH 546738 has a favourable pharmacokinetic profile in rodents. […] Therefore, SCH 546738 is suitable for in vivo preclinical studies.

[2] = biological target: Prokineticin PKR2 (Homo sapiens, UniProt Q8NFJ6); test: GPCR counterscreen binding assay
Procedure: as §1

[3] = biological target: Adenosine A1 (Homo sapiens, UniProt P30542); test: GPCR counterscreen binding assay
Procedure: as §1

[4] = biological target: CCR2 (Homo sapiens, UniProt P41597); test: GPCR counterscreen binding assay
Procedure: as §1

[5] = tested on: Purinergic P2Y1_2; test: GPCR counterscreen binding assay; conditions: @ 4 μM
Procedure: as §1

[6] = biological target: Dopamine D2 (Homo sapiens, UniProt P14416); test: GPCR counterscreen binding assay
Procedure: as §1

[7] = biological target: Kappa opiate (Homo sapiens, UniProt P41145); test: GPCR counterscreen binding assay
Procedure: as §1

[8] = biological target: T1, CXCR3 (Homo sapiens, UniProt P49682); test: competition binding analysis using 35S-SCH 535390 as tracer (SPA); design: expressed in transfected cells; host or cells: mouse pro-B Ba/F3 cells (vector pME18Sneo), membrane preparation; conditions: competition with 35S-SCH 535390 tracer; multiple experiments; read-out: affinity constant (Ki) of binding to human CXCR3 receptor
T1 sequence (P49682 1-368): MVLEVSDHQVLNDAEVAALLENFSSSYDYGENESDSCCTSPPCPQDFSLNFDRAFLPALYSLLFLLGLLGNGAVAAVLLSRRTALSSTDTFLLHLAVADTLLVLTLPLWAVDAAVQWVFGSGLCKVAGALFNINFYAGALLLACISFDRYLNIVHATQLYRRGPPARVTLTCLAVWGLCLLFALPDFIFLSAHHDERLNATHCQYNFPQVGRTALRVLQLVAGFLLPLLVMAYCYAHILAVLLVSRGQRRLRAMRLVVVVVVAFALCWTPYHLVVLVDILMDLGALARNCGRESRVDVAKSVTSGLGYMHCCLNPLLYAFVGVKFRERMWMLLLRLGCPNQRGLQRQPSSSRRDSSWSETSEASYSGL
Procedure: The cDNAs encoding human, mouse and rat CXCR3 were generated based on the published sequences: human (NM_001504), mouse (NM_009910), rat (NM_053415). The cDNAs for monkey and dog CXCR3 were cloned in the lab. All CXCR3 cDNAs were cloned into the mammalian expression vector pME18Sneo, a derivative of the SRα expression vector as described previously. IL-3-dependent mouse pro-B cells Ba/F3 were transfected to express CXCR3 of different species and cell membranes were prepared as described previously.
A scintillation proximity assay was used for radioligand competition binding assays as described previously with some modifications. For each assay point, 1 µg of membrane was preincubated for 1 hr with 300 µg wheat germ agglutinin (WGA) coated SPA beads (GE Healthcare Life Sciences) in the binding buffer (50 mM HEPES, 1 mM CaCl2, 5 mM MgCl2, 125 mM NaCl, 0.002% NaN3, 1.0% BSA) at room temperature. The beads were spun down, resuspended in the binding buffer and transferred to a 96-well Isoplate (Wallac, Gaithersburg, MD). The indicated concentrations of ^125I-hCXCL10, ^125I-hCXCL11 or ^35S-SCH 535390 with a series of titrations of SCH 546738 were added to start the reaction. After indicated reaction times at room temperature, the amount of radioactivity bound to the SPA beads was determined with a Wallac 1450 Microbeta counter (Wallac). […]

Sequence of Vasopressin (oxytocin) (P30559 whole entry): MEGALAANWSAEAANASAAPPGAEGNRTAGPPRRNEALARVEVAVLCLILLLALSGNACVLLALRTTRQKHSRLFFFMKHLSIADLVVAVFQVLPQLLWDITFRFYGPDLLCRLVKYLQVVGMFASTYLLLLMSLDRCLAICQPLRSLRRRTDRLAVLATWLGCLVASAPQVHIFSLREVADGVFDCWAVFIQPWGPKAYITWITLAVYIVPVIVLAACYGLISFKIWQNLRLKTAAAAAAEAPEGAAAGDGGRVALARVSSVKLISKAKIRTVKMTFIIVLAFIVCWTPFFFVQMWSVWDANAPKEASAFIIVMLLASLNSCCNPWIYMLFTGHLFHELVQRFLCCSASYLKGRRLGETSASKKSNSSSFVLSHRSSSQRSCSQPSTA
Sequence of Adenosine A1 (P30542 whole entry): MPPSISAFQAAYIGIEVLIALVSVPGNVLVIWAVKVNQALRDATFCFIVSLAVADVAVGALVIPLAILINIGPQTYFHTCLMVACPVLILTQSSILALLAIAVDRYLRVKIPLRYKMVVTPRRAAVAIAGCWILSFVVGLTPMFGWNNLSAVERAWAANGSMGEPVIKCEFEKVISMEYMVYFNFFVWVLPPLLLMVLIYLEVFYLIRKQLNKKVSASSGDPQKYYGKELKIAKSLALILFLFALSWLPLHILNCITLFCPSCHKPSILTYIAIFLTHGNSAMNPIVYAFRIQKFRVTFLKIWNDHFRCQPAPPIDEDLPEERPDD
Sequence of CCR2 (P41597 whole entry): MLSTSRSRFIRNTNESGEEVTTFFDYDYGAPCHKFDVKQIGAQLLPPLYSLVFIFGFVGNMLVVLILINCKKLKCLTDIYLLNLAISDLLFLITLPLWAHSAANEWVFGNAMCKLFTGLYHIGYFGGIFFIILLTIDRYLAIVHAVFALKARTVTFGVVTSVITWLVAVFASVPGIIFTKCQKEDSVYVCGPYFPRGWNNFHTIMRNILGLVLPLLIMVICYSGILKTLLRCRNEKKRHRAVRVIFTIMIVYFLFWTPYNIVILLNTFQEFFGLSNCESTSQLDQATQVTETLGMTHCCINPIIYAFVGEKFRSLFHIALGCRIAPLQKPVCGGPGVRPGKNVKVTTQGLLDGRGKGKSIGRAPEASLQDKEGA
Sequence of Dopamine D2 (P14416 whole entry): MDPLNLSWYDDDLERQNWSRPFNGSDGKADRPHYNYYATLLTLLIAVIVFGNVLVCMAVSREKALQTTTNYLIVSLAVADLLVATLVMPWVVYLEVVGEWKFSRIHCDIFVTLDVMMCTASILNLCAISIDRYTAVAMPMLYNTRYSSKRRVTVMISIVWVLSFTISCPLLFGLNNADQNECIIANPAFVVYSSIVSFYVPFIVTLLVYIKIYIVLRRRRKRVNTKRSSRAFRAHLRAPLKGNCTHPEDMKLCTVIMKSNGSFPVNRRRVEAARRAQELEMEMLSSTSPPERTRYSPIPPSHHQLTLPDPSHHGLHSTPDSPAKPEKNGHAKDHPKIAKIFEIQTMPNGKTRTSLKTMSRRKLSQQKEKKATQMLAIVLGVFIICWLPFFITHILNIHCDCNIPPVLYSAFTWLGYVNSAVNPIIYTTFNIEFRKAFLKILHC
Sequence of Prokineticin PKR2 (Q8NFJ6 whole entry): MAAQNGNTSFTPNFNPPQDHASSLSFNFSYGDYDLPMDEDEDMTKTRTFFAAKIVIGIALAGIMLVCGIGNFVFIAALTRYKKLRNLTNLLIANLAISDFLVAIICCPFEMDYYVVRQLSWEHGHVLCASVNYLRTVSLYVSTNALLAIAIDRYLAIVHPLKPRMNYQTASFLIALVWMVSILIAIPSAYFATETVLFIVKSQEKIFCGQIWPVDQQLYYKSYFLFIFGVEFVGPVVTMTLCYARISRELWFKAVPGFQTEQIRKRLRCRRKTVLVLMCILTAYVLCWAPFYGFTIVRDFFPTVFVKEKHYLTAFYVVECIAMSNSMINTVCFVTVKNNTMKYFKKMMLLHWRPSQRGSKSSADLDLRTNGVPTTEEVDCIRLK
Sequence of Kappa opiate (P41145 whole entry): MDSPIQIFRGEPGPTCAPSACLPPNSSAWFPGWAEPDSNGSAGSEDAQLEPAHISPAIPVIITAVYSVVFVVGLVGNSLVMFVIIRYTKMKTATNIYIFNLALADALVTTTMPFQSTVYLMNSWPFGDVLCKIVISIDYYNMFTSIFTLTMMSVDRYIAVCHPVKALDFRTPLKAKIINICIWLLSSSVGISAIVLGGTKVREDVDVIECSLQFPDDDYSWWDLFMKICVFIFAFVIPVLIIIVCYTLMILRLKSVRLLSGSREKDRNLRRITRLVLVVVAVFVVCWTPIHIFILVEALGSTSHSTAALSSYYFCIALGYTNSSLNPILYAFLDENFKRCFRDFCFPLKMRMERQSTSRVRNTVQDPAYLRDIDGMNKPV

## CC[C@H]1CN(c2nc(N)c(C(N)=O)nc2Cl)CCN1C1CCN(Cc2ccc(Cl)cc2)CC1 [SCH 546738]
[1]
  inhibition at 4 µM: 12%
[2]
  inhibition at 4 µM: -5%
[3]
  inhibition at 4 µM: 0%
[4]
  inhibition at 10 µM: 9%
[5]
  Inhibition (%): 10% @ 4 μM
[6]
  inhibition at 4 µM: 41%
[7]
  inhibition at 4 µM: 7%
[8]
  Ki: 0.4 nM
